This assay deals with sc-urokinase (Homo sapiens, UniProt P00749). The assay is described as follows: Inhibiting urokinase: chromogenic substrate Bz-βAla-Gly-Arg-pNA, Ki by Dixon. It counts as biochemical. To be noted: 25° C., pH 8.0, mean of at least three determinations. The source says: Inhibiting urokinase with selected compounds in which Y=amidino
Determining the inhibitory effect:
The Ki values are the mean of at least three determinations.

SMILES strings stand for the structures. Counter-ions that a name gives are not always drawn. Some results are limits rather than exact numbers.

Broadly, the Ki is the equilibrium dissociation constant of an inhibitor or competing ligand from its target. Compound `N=C(N)c1ccc(CNC(=O)CNC(=O)[C@H](N)CO)cc1` [H, D, CH2—OH, H, CH2, 4] displayed an inhibition constant (Ki) of 12 µM.

Regarding `N=C(N)c1ccc(CNC(=O)CNC(=O)[C@@H](CO)NS(=O)(=O)CC2CCCCC2)cc1` [CMe—SO2, D, CH2—OH, H, CH2, 4], the Ki is 0.048 µM. For `CC(C)(C)OC(=O)N[C@@H](CO)C(=O)NCC(=O)NCc1ccc(C(=N)N)cc1` [Boc, L, CH2—OH, H, CH2, 4], the inhibition constant (Ki) turned out to be 23 µM.

For `CC(C)(C)OC(=O)N[C@H](COCc1ccccc1)C(=O)NCC(=O)NCc1cccc(C(=N)N)c1` [Boc, D, CH2—O—Bz, H, CH2, 3], the Ki was above 1000 µM. With `N=C(N)c1ccc(CNC(=O)CNC(=O)[C@@H](COCc2ccccc2)NS(=O)(=O)Cc2ccccc2)cc1` [Bz—SO2, D, CH2—O—Bz, H, CH2, 4, Benzylsulfonyl-D-Ser(Bz)-Gly-4-amidinobenzyl-amide×TFA] the figure was 0.84 µM. With `N=C(N)c1cccc(CNC(=O)CNC(=O)[C@H](N)COCc2ccccc2)c1` [H, D, CH2—O—Bz, H, CH2, 3] the figure was above 1000 µM.

With `N=C(N)c1ccc(CNC(=O)CNC(=O)[C@@H](N)CO)cc1` [H, L, CH2—OH, H, CH2, 4], the inhibitory constant (Ki) was 21 µM. In turn, `N=C(N)c1cccc(CNC(=O)CNC(=O)[C@@H](COCc2ccccc2)NS(=O)(=O)Cc2ccccc2)c1` [Bz—SO2, D, CH2—O—Bz, H, CH2, 3] registered a Ki above 1000 µM. With `CC(C)COC(=O)OC[C@@H](NS(=O)(=O)Cc1ccccc1)C(=O)NCC(=O)NCc1ccc(C(=N)N)cc1` [Bz—SO2, D, CH2—O—COO-iBu, H, CH2, 4, Benzylsulfonyl-D-Ser(COO-isobutyl)-Gly-4-amidino-benzylamide×HCl] the figure was 0.5 µM; with `COC(=O)OC[C@@H](NS(=O)(=O)Cc1ccccc1)C(=O)NCC(=O)NCc1ccc(C(=N)N)cc1` [Bz—SO2, D, CH2—O—COO—CH3, H, CH2, 4], 0.39 µM.
